This note sets out measurements from BindingDB's records for patent WO2025051920 (Sanofi-Aventis Deutschland, 2025).

In this assay the target is Interleukin-23 subunit alpha/receptor (UniProt Q5VWK5). The assay can be described thus: ELISA assay for specific human IL-23R inhibitors. The protocol: A 384-well plate was coated with 50 µl/well of human IL-23 at a final concentration of […] and incubated overnight at 4°C. The wells were washed 3 times with […] wash buffer and blocked with […] blocking buffer for 60 minutes at room temperature and washed again. 20 µl of serially diluted test peptides was added to each well and subsequently 20 µl of recombinant human IL-23R-Fc chimera at final concentration of […]. The plate was incubated for 60 minutes at room temperature. After the wells were washed, bound IL-23R-Fc was detected with goat anti-hu- IgG 1 -HRP antibody. Signals were visualized with QuantaBlu Fluorogenic Peroxidase Substrate.
Chain of Interleukin-23 subunit alpha/receptor (Q9NPF7 whole entry): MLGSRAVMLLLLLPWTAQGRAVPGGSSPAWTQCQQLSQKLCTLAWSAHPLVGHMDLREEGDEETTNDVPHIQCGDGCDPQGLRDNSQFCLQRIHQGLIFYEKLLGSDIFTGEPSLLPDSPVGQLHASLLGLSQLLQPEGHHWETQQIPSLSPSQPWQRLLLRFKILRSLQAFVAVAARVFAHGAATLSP
Chain of Interleukin-23 subunit alpha/receptor (Q5VWK5 whole entry): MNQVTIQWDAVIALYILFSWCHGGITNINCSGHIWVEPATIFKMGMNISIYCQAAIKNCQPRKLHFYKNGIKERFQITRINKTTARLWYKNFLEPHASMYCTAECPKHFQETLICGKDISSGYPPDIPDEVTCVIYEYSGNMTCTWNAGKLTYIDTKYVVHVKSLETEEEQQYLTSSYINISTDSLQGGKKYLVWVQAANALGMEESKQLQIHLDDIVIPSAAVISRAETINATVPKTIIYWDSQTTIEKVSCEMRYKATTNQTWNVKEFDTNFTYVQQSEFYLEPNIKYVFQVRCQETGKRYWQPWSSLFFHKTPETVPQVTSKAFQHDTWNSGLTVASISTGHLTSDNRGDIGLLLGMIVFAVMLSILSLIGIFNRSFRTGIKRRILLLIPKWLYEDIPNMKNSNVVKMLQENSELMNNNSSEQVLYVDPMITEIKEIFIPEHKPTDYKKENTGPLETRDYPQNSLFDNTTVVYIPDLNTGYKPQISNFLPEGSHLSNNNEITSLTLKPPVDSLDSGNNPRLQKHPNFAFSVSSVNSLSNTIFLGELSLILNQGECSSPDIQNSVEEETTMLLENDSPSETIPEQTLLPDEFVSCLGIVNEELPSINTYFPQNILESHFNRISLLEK

pIC50: −log10 of the molar value. Bridge positions count the residues as written; N and C are the ends. Square brackets hold non-standard residues; d marks the D form. Peptide text beside a SMILES is read from it. ξ: configuration not given here. Trp(1-Me) = Cn1cc(C[C@H](N)C(=O)O)c2ccccc21; 2Nal = N[C@@H](Cc1ccc2ccccc2c1)C(=O)O; ξThr(3R) = C[C@@H](O)C(N)C(=O)O; dOrn = NCCC[C@@H](N)C(=O)O; ξH = NC(Cc1c[nH]cn1)C(=O)O; Thp = NC1(C(=O)O)CCOCC1; ξD = NC(CC(=O)O)C(=O)O; ξOrn = NCCCC(N)C(=O)O; Aib = CC(C)(N)C(=O)O; ξK = NCCCCC(N)C(=O)O

For the compound `COc1ccc(C[C@@H]2NC(=O)C(C)(C)NC(=O)[C@H](CCC(N)=O)NC(=O)[C@H](Cc3c[nH]c4ccccc34)NC(=O)[C@H]([C@@H](C)O)NC(=O)[C@H](CC(N)=O)NC(=O)[C@H](NC(C)=O)CCCCNC(=O)C[C@@H](C(=O)N[C@@H](CC(N)=O)C(=O)N[C@@H](CC(N)=O)C(=O)O)NC(=O)C(C)(C)NC(=O)[C@H](Cc3cccc4ccccc34)NC2=O)cc1` [WO2025051920, Example 21], the pIC50 is 7.77.
In turn, `COc1ccc(C[C@@H]2NC(=O)[C@H](CCCNC(=N)N)NC(=O)[C@H](CCC(N)=O)NC(=O)[C@H](Cc3c[nH]c4ccccc34)NC(=O)[C@H]([C@@H](C)O)NC(=O)[C@H](CC(N)=O)NC(=O)[C@H](NC(C)=O)CCCNC(=O)CC[C@@H](C(=O)N[C@@H](CC(N)=O)C(=O)N[C@@H](CC(N)=O)C(=O)O)NC(=O)C(C)(C)NC(=O)[C@H](Cc3cccc4ccccc34)NC2=O)cc1` [WO2025051920, Example 22] gave a pIC50 of 7.32.
`COc1ccc(C[C@@H]2NC(=O)[C@H](CCCNC(=N)N)NC(=O)[C@H](CCC(N)=O)NC(=O)[C@H](Cc3cn(C)c4ccccc34)NC(=O)[C@H]([C@@H](C)O)NC(=O)[C@H](CC(N)=O)NC(=O)[C@H](NC(C)=O)CCCCNC(=O)C[C@@H](C(=O)N[C@@H](CC(N)=O)C(=O)N[C@@H](CC(N)=O)C(=O)O)NC(=O)[C@@H](Cc3cscn3)NC(=O)[C@H](Cc3ccc4ccccc4c3)NC2=O)cc1` [WO2025051920, Example 25] showed a negative-log IC50 (pIC50) of 8.02. This pIC50 lies 0.70 log units higher than the previous one.
`COc1ccc(C[C@@H]2NC(=O)[C@H](CCCNC(=N)N)NC(=O)[C@H](CCC(N)=O)NC(=O)[C@H](Cc3c[nH]c4ccccc34)NC(=O)[C@H]([C@@H](C)O)NC(=O)[C@H](CC(N)=O)NC(=O)[C@H](NC(C)=O)CCCNC(=O)C[C@@H](C(=O)N[C@@H](CC(N)=O)C(=O)N[C@@H](CC(N)=O)C(N)=O)NC(=O)C(C)(C)NC(=O)[C@H](Cc3ccc4ccccc4c3)NC2=O)cc1` [WO2025051920, Example 27] (Ac-[dOrn]NTWQRY(Me)[2Nal][Aib]DNN-NH2; lactam 1-10) had a pIC50 of 7.70.
To `COc1ccc(C[C@@H]2NC(=O)[C@H](CCCNC(=N)N)NC(=O)[C@H](CCC(N)=O)NC(=O)[C@H](Cc3c[nH]c4ccccc34)NC(=O)[C@H]([C@@H](C)O)NC(=O)[C@H](CC(N)=O)NC(=O)[C@H](NC(C)=O)CCCCNC(=O)C[C@@H](C(=O)N[C@@H](CC(N)=O)C(=O)N[C@@H](CC(N)=O)C(=O)O)NC(=O)[C@H](CCCCN)NC(=O)[C@H](Cc3ccc4ccccc4c3)NC2=O)cc1` [WO2025051920, Example 28] belongs 8.04.
To `COc1ccc(C[C@@H]2NC(=O)[C@H](CCCNC(=N)N)NC(=O)[C@H](CCC(N)=O)NC(=O)[C@H](Cc3c[nH]c4ccccc34)NC(=O)[C@H]([C@@H](C)O)NC(=O)[C@H](CC(N)=O)NC(=O)[C@H](NC(C)=O)CCCCNC(=O)C[C@@H](C(=O)N[C@@H](CC(N)=O)C(=O)N[C@@H](CC(N)=O)C(=O)O)NC(=O)[C@H](CCCNC(N)=O)NC(=O)[C@H](Cc3ccc4ccccc4c3)NC2=O)cc1` [WO2025051920, Example 29] belongs 8.25; to `COc1ccc(C[C@@H]2NC(=O)[C@H](CCCNC(=N)N)NC(=O)[C@H](CCC(N)=O)NC(=O)[C@H](Cc3c[nH]c4ccccc34)NC(=O)[C@H]([C@@H](C)O)NC(=O)[C@H](CC(N)=O)NC(=O)[C@H](NC(C)=O)CCCCNC(=O)C[C@@H](C(=O)N[C@@H](CC(N)=O)C(=O)N[C@@H](CC(N)=O)C(=O)O)NC(=O)[C@H](CCC(N)=O)NC(=O)[C@H](Cc3ccc4ccccc4c3)NC2=O)cc1` [WO2025051920, Example 30], 8.02; to `COc1ccc(C[C@@H]2NC(=O)[C@H](C(C)C)NC(=O)[C@H](CCC(N)=O)NC(=O)[C@H](Cc3c[nH]c4ccccc34)NC(=O)[C@H]([C@@H](C)O)NC(=O)[C@H](CC(N)=O)NC(=O)[C@H](NC(C)=O)CCCCNC(=O)C[C@@H](C(=O)N[C@@H](CC(N)=O)C(=O)N[C@@H](CC(N)=O)C(=O)O)NC(=O)C(C)(C)NC(=O)[C@H](Cc3ccc4ccccc4c3)NC2=O)cc1` [WO2025051920, Example 31], 8.08.
Take `COc1ccc(C[C@@H]2NC(=O)C(C)(C)NC(=O)[C@H](CCC(N)=O)NC(=O)[C@H](Cc3c[nH]c4ccccc34)NC(=O)[C@H]([C@@H](C)O)NC(=O)[C@H](CC(N)=O)NC(=O)[C@H](NC(C)=O)CCCCNC(=O)C[C@@H](C(=O)N[C@@H](CC(N)=O)C(=O)N[C@@H](CC(N)=O)C(=O)O)NC(=O)C(C)(C)NC(=O)[C@H](Cc3ccc4ccccc4c3)NC2=O)cc1` [WO2025051920, Example 32]: the pIC50 was 8.57.
For the compound `CC(=O)N[C@H]1CC(=O)NCCCC(C(=O)N[C@@H](CC(N)=O)C(=O)N[C@@H](CC(N)=O)C(=O)O)NC(=O)C(C)(C)NC(=O)[C@H](Cc2ccc3ccccc3c2)NC(=O)[C@H](Cc2ccc(O)cc2)NC(=O)[C@H](CCCNC(=N)N)NC(=O)[C@H](CCC(N)=O)NC(=O)[C@H](Cc2cn(C)c3ccccc23)NC(=O)[C@H]([C@@H](C)O)NC(=O)[C@H](CC(N)=O)NC1=O` (some centres undefined) [WO2025051920, Example 33] (Ac-DNT[Trp(1-Me)]QRY[2Nal][Aib][ξOrn]NN-OH; lactam 1-10), the pIC50 is 8.47.
In turn, `COc1ccc(C[C@@H]2NC(=O)[C@H](CCCNC(=N)N)NC(=O)[C@H](CCC(N)=O)NC(=O)[C@H](Cc3cn(C)c4ccccc34)NC(=O)[C@H]([C@@H](C)O)NC(=O)[C@H](CC(N)=O)NC(=O)[C@@H](NC(C)=O)CC(=O)NCCCC(C(=O)N[C@@H](CC(N)=O)C(=O)N[C@@H](CC(N)=O)C(=O)O)NC(=O)C(C)(C)NC(=O)[C@H](Cc3ccc4ccccc4c3)NC2=O)cc1` (some centres undefined) [WO2025051920, Example 34] (Ac-DNT[Trp(1-Me)]QRY(Me)[2Nal][Aib][ξOrn]NN-OH; lactam 1-10) gave a pIC50 of 8.67.
For the compound `COc1ccc(C[C@@H]2NC(=O)[C@H](CCCNC(=N)N)NC(=O)[C@H](CCC(N)=O)NC(=O)[C@H](Cc3cn(C)c4ccccc34)NC(=O)[C@H]([C@@H](C)O)NC(=O)[C@H](CC(N)=O)NC(=O)[C@@H](NC(C)=O)CCC(=O)NCCCC(C(=O)N[C@@H](CC(N)=O)C(=O)N[C@@H](CC(N)=O)C(=O)O)NC(=O)C(C)(C)NC(=O)[C@H](Cc3ccc4ccccc4c3)NC2=O)cc1` (stereo partly drawn) [WO2025051920, Example 35] (Ac-ENT[Trp(1-Me)]QRY(Me)[2Nal][Aib][ξOrn]NN-OH; lactam 1-10), the pIC50 was 8.34.
In turn, `COc1ccc(C[C@@H]2NC(=O)[C@H](CCCNC(=N)N)NC(=O)[C@H](CCC(N)=O)NC(=O)[C@H](Cc3cn(C)c4ccccc34)NC(=O)[C@H]([C@@H](C)O)NC(=O)[C@H](CC(N)=O)NC(=O)[C@@H](NC(C)=O)CC(=O)NCCCC(C(=O)N[C@@H](CC(N)=O)C(=O)N[C@@H](CC(N)=O)C(=O)O)NC(=O)C(C)(C)NC(=O)[C@H](Cc3c[nH]c4ccccc34)NC2=O)cc1` (some centres undefined) [WO2025051920, Example 36] (Ac-DNT[Trp(1-Me)]QRY(Me)W[Aib][ξOrn]NN-OH; lactam 1-10) had a pIC50 of 7.71.
On to `COc1ccc(C[C@@H]2NC(=O)[C@H](CCCNC(=N)N)NC(=O)[C@H](CCC(N)=O)NC(=O)[C@H](Cc3cn(C)c4ccccc34)NC(=O)[C@H]([C@@H](C)O)NC(=O)[C@H](CC(N)=O)NC(=O)[C@@H](NC(C)=O)CC(=O)NCCCC(C(=O)N[C@@H](CC(N)=O)C(=O)N[C@@H](CC(N)=O)C(=O)O)NC(=O)[C@H](CC(C)C)NC(=O)[C@H](Cc3ccc4ccccc4c3)NC2=O)cc1` (some centres undefined) [WO2025051920, Example 37] (Ac-DNT[Trp(1-Me)]QRY(Me)[2Nal]L[ξOrn]NN-OH; lactam 1-10), for which the pIC50 is 8.45.
The compound `COc1ccc(C[C@@H]2NC(=O)[C@H](CCNC(=N)N)NC(=O)[C@H](CCC(N)=O)NC(=O)[C@H](Cc3c[nH]c4ccccc34)NC(=O)[C@H]([C@@H](C)O)NC(=O)[C@H](CC(N)=O)NC(=O)[C@H](NC(C)=O)CCCCNC(=O)C[C@@H](C(=O)N[C@@H](CC(N)=O)C(=O)N[C@@H](CC(N)=O)C(=O)O)NC(=O)C(C)(C)NC(=O)[C@H](Cc3ccc4ccccc4c3)NC2=O)cc1` [WO2025051920, Example 39] showed a pIC50 of 8.84.
Compound `COc1ccc(C[C@@H]2NC(=O)[C@H](CCNC(=N)N)NC(=O)[C@H](CCC(N)=O)NC(=O)[C@H](Cc3c[nH]c4ccccc34)NC(=O)C([C@@H](C)O)NC(=O)[C@H](CC(N)=O)NC(=O)C(N)CCCCCNC(=O)CC[C@H](C(=O)N[C@@H](CC(N)=O)C(=O)N[C@@H](CC(N)=O)C(=O)O)NC(=O)C(C)(C)NC(=O)[C@H](Cc3ccc4ccccc4c3)NC2=O)cc1` (some centres undefined) [WO2025051920, Example 40] had a pIC50 of 8.51.
In the case of `COc1ccc(C[C@@H]2NC(=O)[C@H](CCCNC(=N)N)NC(=O)[C@H](CCC(N)=O)NC(=O)[C@H](Cc3c[nH]c4ccccc34)NC(=O)C([C@@H](C)O)NC(=O)[C@H](CC(N)=O)NC(=O)C(NC(C)=O)CCCCNC(=O)CC(C(=O)N[C@@H](CC(N)=O)C(=O)N[C@@H](CC(N)=O)C(=O)O)NC(=O)C3(CCOCC3)NC(=O)[C@H](Cc3ccc4ccccc4c3)NC2=O)cc1` (stereo partly drawn) [WO2025051920, Example 41] (Ac-[ξK]N[ξThr(3R)]WQRY(Me)[2Nal][Thp][ξD]NN-OH; lactam 1-10), the pIC50 is 8.83.
Consider `COc1ccc(C[C@@H]2NC(=O)[C@H](CCCNC(=N)N)NC(=O)[C@H](CCC(N)=O)NC(=O)[C@H](Cc3c[nH]c4ccccc34)NC(=O)C(Cc3c[nH]cn3)NC(=O)[C@H](CC(N)=O)NC(=O)C(NC(C)=O)CCCCNC(=O)CC(C(=O)N[C@@H](CC(N)=O)C(=O)N[C@@H](CC(N)=O)C(=O)O)NC(=O)C3(CCOCC3)NC(=O)[C@H](Cc3ccc4ccccc4c3)NC2=O)cc1` (some centres undefined) [WO2025051920, Example 42] (Ac-[ξK]N[ξH]WQRY(Me)[2Nal][Thp][ξD]NN-OH; lactam 1-10), for which the pIC50 was 7.74.
The same measure for `COc1ccc(C[C@@H]2NC(=O)[C@H](C)NC(=O)[C@H](CCC(N)=O)NC(=O)[C@H](Cc3c[nH]c4ccccc34)NC(=O)C([C@@H](C)O)NC(=O)[C@H](CC(N)=O)NC(=O)C(N)CCCCCNC(=O)C[C@H](C(=O)N[C@@H](CC(N)=O)C(=O)N[C@@H](CC(N)=O)C(=O)O)NC(=O)C(C)(C)NC(=O)[C@H](Cc3ccc4ccccc4c3)NC2=O)cc1` (some centres undefined) [WO2025051920, Example 43]: 8.84.

Usually pIC50 stands for the IC50 on a negative log10 scale, so that one unit is a factor of ten. Read a low pIC50 as a high IC50.
